In patent US20110294803A1, “PHOSPHATIDYLINOSITOL-3-KINASE P110 DELTA-TARGETED DRUGS IN THE TREATMENT OF CNS DISORDERS” (priority 2008, published 2011):
Entries after “also recorded” stand apart in the source; their conditions may differ.

Experiments:
[1] = system: COMT*dysbindin double knockout mice; experiment: Amphetamine-induced stereotypy in a genetic mouse model of schizophrenia; assay type: in vivo; conditions: IC87114 0.1 mg/kg i.p. pretreatment, D-amphetamine 1.5 mg/kg i.p.
Excerpt: Subjects. All procedures were approved by the NIMH Animal Care and Use Committee and followed the NIH Guidelines “Using Animals in Intramural Research.” To derive the double knockout mice, the lines of COMT knockout mice and dysbindin knockout mice previously described were used. COMT*dysbindin double knockout mice (COMT−/− dys−/−) were littermates and bred by double heterozygote mating (dCOMT+/−dys+/− with cCOMT+/−dys+/−). Mice were identified by PCR analysis of tail DNA. Mice were group-housed (2-4/cage) in a climate-controlled animal facility (22±2° C.) and maintained on a 12-hr light/dark cycle, with free access to food and water. Testing was conducted in male mice, 7 months old, during the light phase. Experimenters were blind to the genotype during behavioral testing. Mice were handled by the experimenter on alternate days during the week preceding the tests. At least one hour before any test manipulation, mice were habituated in a room adjacent to the testing room.
Stereotypy behavior with IC87114 and Amphetamine Treatment. […] Stereotypy was scored from videotapes by an observer blind to the treatments and genotype conditions of each mouse. […]
Statistical analysis. Results were expressed as mean±standard error of the mean (S.E.M.) throughout. […]

[2] = system: Human B-lymphoblast cells (LCLs); experiment: NRG1-induced lymphocyte (LCL) migration, Transwell assay; assay type: cell-based; conditions: 0.1 uM, 60 min preincubation; LCLs of normal individuals and patients with schizophrenia; NRG-1 200 ng/ml, 4 hours
Description: The cellular phenotype is migration of lymphocytes to the chemoattractant, Neuregulin (NRG1), a key regulator of brain development. NRG1 induced LCL migration is diminished in patients with schizophrenia.
Human B-lymphoblast cells were cultured in RPMI 1640 without L-Glutamine medium (Quality Biological, Inc.) supplemented with 15% fetal bovine serum (FBS), 1% Penicillin-streptomycin, and 2% L-Glutamine in a 5% CO2 incubator at 37° C. Prior to performing migration assay, cells were incubated for 16-18 hours in the same culture, lowering the concentration of FBS to 2%. […] Following incubations, cells were seeded into the top chamber of the HTS […] Transwell®-96 Cell Migration plate (Corning) at 4×10^5 cell/well concentration in a 50 μl volume. NRG-1 serum free RPMI solution with antibiotics and L-Glutamine supplements (NRG-1 200 ng/ml; 160 μl) was added to the bottom chamber and incubated for 4 hours at 37° C. 75 μl of the bottom chamber fraction was collected and combined with 25 μl of cyquant/lysis buffer reagent (according to Invitrogen protocol) for 15 min at RT and in the dark, and then read with a Wallac 1420 VICTOR3 multilabel plate reader under standard fluorescein (485 nm/535 nm, 1.0 s) protocol.

[3] = Passive blood-brain barrier permeability analysis by partitioning (Analiza); assay type: physicochemical
Description: For compounds to be clinically useful to treat CNS disorders, they should penetrate the blood-brain barrier (BBB). […] The degree of BBB penetration is measured as the ratio of the steady-state concentrations of the drug in the brain and in the blood, expressed as log(Cbrain/Cblood) or log BB. Compounds with logBB>0.3 (i.e. Cbrain/Cblood>2.0) cross the BBB readily. From these studies, IC87114 represents one of these compounds.
BBB analysis was performed using Analiza assays: Based upon a method described previously, a combination of two descriptors representing the lipophilicity (as measured by octanol-buffer partitioning, logD7.4) and relative hydrophobicity (as measured by aqueous two-phase partitioning (ATPPS), N(CH2)) of organic compounds was used to determine if that compound will permeate the blood-brain barrier.
Sample Preparation: One sample was received as 10 mM stock solutions in Dimethyl sulfoxide (DMSO) frozen on dry ice in a microtube. […]
Partitioning Experiments: Partitioning in an aqueous dextran-polyethylene glycol (Dex-PEG) two-phase system containing 0.15M NaCl in 0.01M sodium phosphate buffer at pH 7.4 was performed with an Automated Signature Workstation (Analiza, Inc. Cleveland, Ohio). […] Relative Hydrophobicity (N(CH2)) is then calculated from this partition coefficient. […] Relative Hydrophobicity (N(CH2) is then calculated from this partition coefficient. […]

[4] = system: C57BL/6J mice; experiment: Baseline locomotor activity in open field; assay type: in vivo, mouse; conditions: IC87114 0.1 mg/kg i.p., male C57BL/6J mice, no amphetamine
Description: (§1) Subjects. C57BL/6J mice were purchased from The Jackson Laboratory at 8 weeks old. All mice were group-housed (4/cage) in a climate-controlled animal facility (22±2° C.) and maintained on a 12-hr light/dark cycle, with free access to food and water. Testing was conducted in male mice, at ages 2-3 months, during the light phase of the circadian cycle. Mice were handled by the experimenter on alternate days during the week preceding the tests. At least one hour before any test manipulation, mice were habituated in a room adjacent to the testing room.
Mice were tested on day 1 in an experimental apparatus consisting of four Plexiglas Digiscan automated open fields (Accuscan; 42×42×30 cm dimensions). One red light (5±2 lux) was placed overhead, evenly illuminating each open field. Each apparatus contained photobeam sensors to measure the exploratory and locomotor activity of the mice. During the first 10-minute session, mice were placed in the empty open field and allowed to explore the arena. […] They were then place back in the same open field for an additional 75 minutes. All sessions were videotaped. […] “Vehicle-treated” mice were injected with the same volume of 0.25% DMSO in saline physiological saline.
Statistical analysis. Results were expressed as mean±standard error of the mean (S.E.M.) throughout. Student T-test, Two- or Three-Way analysis of variance (ANOVA) was used. […]

[5] = system: C57BL/6J mice; experiment: Amphetamine-induced locomotor activity in open field, normal mice; assay type: in vivo, mouse; conditions: IC87114 0.1 mg/kg i.p. pretreatment; D-amphetamine 0.75 or 1.5 mg/kg i.p.; male C57BL/6J mice
Description: as §1
On day 3, mice were tested in the same experimental apparatus and conditions as on day 1. […] During the first 10-minute session mice were placed in the same empty open field as day 1. Immediately after, mice were removed from the field and given an injection of D-amphetamine sulphate (either 0.75 mg/kg or 1.5 mg/kg, i.p., Sigma-Aldrich, St. Louis, Mo., USA). They were then placed back in the same open field and allowed to explore for an additional 75 minutes. Amphetamine was dissolved in physiological saline and injected in a volume of 10 ml/kg.
Statistical analysis. Results were expressed as mean±standard error of the mean (S.E.M.) throughout. Student T-test, Two- or Three-Way analysis of variance (ANOVA) was used. Post-hoc analyses for individual group comparisons employed Newman-Keuls analyses.

[6] = system: PIK3CD mRNA; experiment: PIK3CD mRNA expression in hippocampus of rats treated chronically with haloperidol; assay type: in vivo, rat; conditions: haloperidol 0.08 or 0.6 mg/kg/day i.p. once daily for 28 days, compared to untreated rats; F(2,22)=9.45, p=0.001
Description: (§2) To explore this hypothesis, rats treated chronically with haloperidol, a standard antipsychotic drug, were tested for PIK3CD expression in the brain. Male Sprague-Dawley rats (weight 250 g) were on a 12-h light/dark cycle (lights on/off 0600 hours/1800 hours) in a temperature-controlled environment and with access to food and water. Rats were randomly assigned to drug treatment groups (8 per dose) and administered intraperitoneal injections of haloperidol (0.08 or 0.6 mg/kg/day) or vehicle (0.02% lactic acid) once daily for 28 days. Haloperidol (20 mg/ml) was prepared in 1% lactic acid, diluted with water, and neutralized with 1M NaOH to obtain pH 5.3. Rats were euthanized 7 h after the last injection. Brains were dissected and frozen at −80° C. PIK3CD, PIK3R3, ErbB4, and ErbB3 mRNA expression was determined in rat hippocampus using methods described above. Association of mRNA expression with haloperidol treatment was analyzed by ANOVA.

[7] = system: ErbB4 mRNA; experiment: ErbB4 mRNA expression in hippocampus of rats treated chronically with haloperidol; assay type: in vivo, rat; conditions: haloperidol 0.08 or 0.6 mg/kg/day i.p. once daily for 28 days
Description: as §2

[8] = system: ErbB3 mRNA; experiment: ErbB3 mRNA expression in hippocampus of rats treated chronically with haloperidol; assay type: in vivo, rat; conditions: haloperidol 0.08 or 0.6 mg/kg/day i.p. once daily for 28 days
Description: as §2

[9] = system: PIK3R3 mRNA; experiment: PIK3R3 mRNA expression in hippocampus of rats treated chronically with haloperidol; assay type: in vivo, rat; conditions: haloperidol 0.08 or 0.6 mg/kg/day i.p. once daily for 28 days
Description: as §2

| SMILES | amphetamine-induced stereotypy [1] | LCL migration in response to NRG-1 stimulation [2] | logBB (log(Cbrain/Cblood)) ([3]; calculated from partitioning data) | Kp ([3]; not told, calculated from log D (octanol-buffer, pH 7.4) and N(CH2) (aqueous two-phase partitioning), read-out: Cbrain/Cblood) | baseline locomotor activity (distance traveled during 75 minutes) [4] | amphetamine-induced hyperlocomotion (distance traveled during 75 minutes) [5] | expression of PIK3CD mRNA in rat hippocampus [6] | ErbB4 mRNA expression in rat hippocampus [7] | ErbB3 mRNA expression in rat hippocampus [8] | PIK3R3 mRNA expression in rat hippocampus [9] |
| --- | --- | --- | --- | --- | --- | --- | --- | --- | --- | --- |
| Cc1ccccc1-n1c(Cn2cnc3c(N)ncnc32)nc2cccc(C)c2c1=O [IC87114] | dramatically reduces amphetamine-induced stereotypy; also recorded: diminished | Rescues a Cellular Phenotype Related to Schizophrenia; also recorded: significantly improve LCL migration | > 0.3 | > 2 | no effect on baseline locomotor activity; also recorded: without affecting baseline behavior; also recorded: did not show any drug-treatment effect | reduces amphetamine-induced hyperlocomotion; also recorded: reduces amphetamine induced locomotor abnormalities; also recorded: blocked the amphetamine-induced increase in locomotor activity |  |  |  |  |
| O=C(CCCN1CCC(O)(c2ccc(Cl)cc2)CC1)c1ccc(F)cc1 [haloperidol] |  |  |  |  |  |  | decreases expression of PIK3CD mRNA | did not affect | did not affect | did not affect |
